These results are taken from patent publication US20020049167A1, “Azithromycin as a therapeutic agent for infections with leishmania parasites” (priority 2000, published 2002).

Series [1] relates to Leishmania major. As to the kind of experiment: In vitro susceptibility of Leishmania major amastigotes in murine monocyte-derived bone marrow macrophages (Giemsa counting). The series is classed as cell-based. The following applies: for multiplication index: analysis of variance; for percentage of macrophages infected: by day five; for number of amastigotes found in infected cells: day five. The protocol: Monocyte-derived bone marrow macrophages from C57B1/6 naïve mice. These cells were harvested from the femoral bones and incubated for 7 days at 37° C. in 5% CO2 in complete tissue culture medium [DMEM, 20% heat inactivated fetal calf serum, 1% Penicillin/streptomycin, 1% glutamine, 1% pyruvate, 30% L-cell line supernatant]. After 7 days, 50×10^6 macrophages per mouse donor were recovered from the cultures. The cells were then washed and 1×10^6 macrophages were added to the wells (16 mm diameter) of a 24 well plate at the bottom of which was placed a round glass cover slip. The macrophages were added to the wells in 300 μl of culture medium consisting of RPMI 1640,10% heat inactivated fetal calf serum, 1% Penicillin/streptomycin, 1% glutamine, 2.5% BEPES, and 0.1% 2-mercaptoethanol.
Cryopreserved amastigotes of Leishmania major (Friedlin strain), originally obtained from footpad lesions of SCID mice, were thawed, washed with medium and counted in a hemocytometer, then re-suspended in complete medium and added to the wells at a concentration of 1 million per well (amastigote/macrophage ratio 1:1) in 50 μl of complete medium. The total volume of media in each well was […].
Amphotericin B (Fungizone, Gibco) was reconstituted from a lyophilized form and azithromycin (Zithromax, Pfizer) was prepared from a 500 mg-powder vial for IV use; both antibiotics were reconstituted in sterile water and diluted in complete medium to the desired concentration. Amphotericin B was used at a concentration of 1 mg/ml and azithromycin at concentrations of 0.1, 0.6, 3 and 15 μg/ml.
After mixing the macrophages with the amastigotes, the plates were incubated for 3 hrs. at 37° C. in 5% Co2; at that point the plates were washed with PBS to eliminate non-adherent macrophages and free amastigotes. Medium with or without antibiotics was added to the wells at a final volume of 3 ml. Some of the cultures were removed from the wells at this point and placed in petri dishes containing 50 mls of medium with antibiotics. Amphotericin B was used as a positive control group in all the experiments. The cultures were maintained at 37° C. in 5% CO2 and culture media and antibiotics were changed daily.
Before adding antibiotics on day 0 and on days 3 and 5, cover slips were recovered from the wells and petri dishes, immediately fixed and stained with Giemsa for counting, which was performed using 1000X magnification with immersion oil. All the experiments were carried out in duplicate.
Two cover slips were recovered from each time point and the data obtained for each slide was as follows: 200 to 300 macrophages were counted, number of infected macrophages per 100 macrophages and number of amastigotes per 100 macrophages was determined. The results reported are the mean values of those two parasite counts. Experiments were repeated a minimum of two times.

The subject of series [2] is macrophages. The following applies: levels versus that obtained in the serum (Gladue et al. 1989); cited from earlier work.
The mark [3] stands for this setting: amphotericin B at 1 mg/ml, Day 0 (before adding antibiotics).
The mark [4] stands for this setting: amphotericin B at 1 mg/ml, Day 3.
Where [5] appears, read: amphotericin B at 1 mg/ml, Day 5.
Where [6] appears, read: 0.1 μg/ml azithromycin, Day 0 (before adding antibiotics).
Where [7] appears, read: 0.6 μg azithromycin, volume 3 ml, five days.
[8] abbreviates: 0.6 μg/ml azithromycin, Day 0 (before adding antibiotics).
The mark [9] stands for this setting: 3.0 μg azithromycin, volume 3 ml, five days.
The mark [10] stands for this setting: 3.0 μg/ml azithromycin, Day 0 (before adding antibiotics).
Setting [11] is: 15 μg/ml azithromycin, Day 0 (before adding antibiotics).

With `C[C@@H]1[C@H](O)[C@@H](C)/C=C/C=C/C=C/C=C/C=C/C=C/C=C/[C@H](O[C@@H]2O[C@H](C)[C@@H](O)[C@H](N)[C@@H]2O)C[C@@H]2O[C@](O)(C[C@@H](O)C[C@@H](O)[C@H](O)CC[C@@H](O)C[C@@H](O)CC(=O)O[C@H]1C)C[C@H](O)[C@H]2C(=O)O` [Amphotericin B], in series [1] (1 mg/ml of amphotericin B), the multiplication index result was “significant reduction”, the “percentage of macrophages infected” value is recorded as “significant decrease” and the “number of amastigotes found in infected cells” value is on record as “significant decrease”. Moreover, in series [1] (setting [3]), the “Number of Amastigotes/100 macrophages” value is 27 /100 macrophages and the “Percent Infected Macrophages” value came to 16%. In series [1] (setting [4]), the “Number of Amastigotes/100 macrophages” value is given as 1 /100 macrophages and the “Percent Infected Macrophages” value was determined as 1%. In series [1] (setting [5]), the “Number of Amastigotes/100 macrophages” value is recorded as 0 /100 macrophages and the “Percent Infected Macrophages” value was determined as 0%.

Take `CC[C@H]1OC(=O)[C@H](C)[C@@H](O[C@H]2C[C@@](C)(OC)[C@@H](O)[C@H](C)O2)[C@H](C)[C@@H](O[C@@H]2O[C@H](C)C[C@H](N(C)C)[C@H]2O)[C@](C)(O)C[C@@H](C)CN(C)[C@H](C)[C@@H](O)[C@]1(C)O` [azithromycin]: the “Number of Amastigotes/100 macrophages” value in series [1] (setting [6]) is 27 /100 macrophages; in series [1] (0.1 μg/ml azithromycin, Day 3), 10 /100 macrophages; in series [1] (0.1 μg/ml azithromycin, Day 5) it was 38 /100 macrophages; in series [1] (0.6 μg azithromycin, five days), 11 /100 macrophages; in series [1] (setting [7]), 23 /100 macrophages; in series [1] (setting [8]), 27 /100 macrophages. The “Number of Amastigotes/100 macrophages” value is reported as 14 /100 macrophages in series [1] (0.6 μg/ml azithromycin, Day 3); 11 /100 macrophages in series [1] (0.6 μg/ml azithromycin, Day 5); 13 /100 macrophages in series [1] (3.0 μg azithromycin, five days); 11 /100 macrophages in series [1] (setting [9]); 27 /100 macrophages in series [1] (setting [10]); 45 /100 macrophages in series [1] (3.0 μg/ml azithromycin, Day 3). The “Number of Amastigotes/100 macrophages” value in series [1] (3.0 μg/ml azithromycin, Day 5) is 13 /100 macrophages; in series [1] (setting [11]), 27 /100 macrophages; in series [1] (15 μg/ml azithromycin, Day 3) it was 13 /100 macrophages; in series [1] (15 μg/ml azithromycin, Day 5), 12 /100 macrophages. For the same compound, the “Percent Infected Macrophages” value is listed as 16% in series [1] (setting [6]); 8% in series [1] (0.1 μg/ml azithromycin, Day 3); 24% in series [1] (0.1 μg/ml azithromycin, Day 5); 17% in series [1] (setting [7]); 10% in series [1] (0.6 μg azithromycin, volume 50 ml, five days); 16% in series [1] (setting [8]). In addition, the “Percent Infected Macrophages” value stood at 28% in series [1] (0.6 μg/ml azithromycin, Day 3); 17% in series [1] (0.6 μg/ml azithromycin, Day 5); 9% in series [1] (setting [9]); 11% in series [1] (3.0 μg azithromycin, volume 50 ml, five days); 16% in series [1] (setting [10]); 31% in series [1] (3.0 μg/ml azithromycin, Day 3). The “Percent Infected Macrophages” value in series [1] (3.0 μg/ml azithromycin, Day 5) was found to be 9%; in series [1] (setting [11]), 16%; in series [1] (15 μg/ml azithromycin, Day 3) it was 10%; in series [1] (15 μg/ml azithromycin, Day 5) it was 9%. In addition, the multiplication index entry in series [1] (0.6-15 μg/ml of azithromycin) is recorded as “significant reduction”. Besides, in series [1] (3 and 15 μg/ml of azithromycin), the “ability to limit the replication of L. major (multiplication index) compared with 1 mg/ml of amphotericin B” value is reported as “statistically equal”. In addition, the “50% effective dose (ED50)” value in series [1] (L. major in murine macrophages in vitro) was < 0.6 µg/mL. Also, the “percentage of macrophages infected” value in series [1] (0.6-15 μg/ml of azithromycin) is “significant decrease”. Further, the “number of amastigotes found in infected cells” value in series [1] (3.0-15 μg/ml of azithromycin) is recorded as “significant decrease”. In series [2], the “drug accumulation in the tissue cells, especially in macrophages, relative to serum” value is 110 times.
